Columns and labels:
Format in all cases: cell-based
HBsAg = test: PHH natural infection assay, HBsAg (alphalisa); settings: Hepatitis B virus, Hepatocyte, 72 h, read-out: HBsAg IC50
Protocol: (§1) Detailed procedures regarding primary human hepatocyte (PHH) HBV natural infection assay are described as below. One tube of frozen PHH (10 million cells) is thawed in 37° C. water bath and then transferred to 20 mL of PHH thawing medium (Sigma, InVitroGRO HT Medium, Cat. S03319) with gently mixing. The cells were then centrifuged at […] for 5 min, the supernatant was discarded and the tube was refilled with 25 mL of PHH plating medium (Sigma, InVitroGRO CP Medium, Cat. S03317). The tube was shaken very gently to re-suspend all cells, and then 50 µl of cells were transferred to each well 384-well collagen I coated plate with appropriate liquid handling equipment, e.g. Integra VIAFLO384 or Agilent Bravo. The cells were then cultured for 24 hours in a cell incubator. For HBV infection, after PHH attachment on the culture plate, the plating medium was removed and replenished with PHH culture medium containing HBV virus. The PHH culture medium was prepared with Dulbecco’s Modified Eagle Medium (DMEM)/F12 (1: 1 in volume ratio) containing 10% fetal bovine serum (Gibco, Cat.10099141), 5 ng/mL human epidermal growth factor (Gibco, Cat.PHG0311L), 20 ng/mL dexamethasone (Sigma, Cat.D4902-100 mg), 250 ng/mL human recombinant insulin (Gibco, Cat.41400045) and 100 U/mL penicillin. HBV virus at 200 genome equivalent (GE) per cell with 4% PEG8000 (Sigma, Cat.P1458) containing culture medium were added to the PHH culture medium for infection. The cells were then cultured for 24 hours in cell incubator. Then the cell culture supernatant was removed. The HBV-infected PHH were cultured with sandwich culture method with PHH culture medium containing 1% DMSO and 0.25 mg/mL matrix gel for 72 hours. The supernatant was then refreshed with PHH culture medium containing different concentrations of testing compounds for two times with 72-hour interval. At the end of treatment, the supernatant was collected for viral markers measurements, including HBsAg, HBeAg, HBV DNA and cytotoxicity. HBsAg and HBeAg were detected using alphalisa method using their specific antibodies. For HBV DNA detection, HBV DNA Quantitative Fluorescence Diagnostic Kit (Sansure Biotech Inc.) was used following the manufacture’s protocol. Cytotoxicity was determined using Cell Counting Kit-8 (CCK8, Dojindo Molecular Technologies, Inc.).
(§2) The compounds of the present invention were tested for their capacity to inhibit HBsAg and HBeAg as described herein.

HBeAg = test: PHH natural infection assay, HBeAg (alphalisa); settings: Hepatitis B virus, Hepatocyte, 72 h, read-out: HBeAg IC50
Protocol: as §1, §2

[1] = PHH natural infection assay, cytotoxicity (Cell Counting Kit-8); settings: HBV-infected primary human hepatocytes, CCK8
Protocol: as §1

SMILES: Cc1cc(Cl)cc(C(=O)Nc2ccc(-c3nnc(-c4ccccc4)o3)cc2)c1 [Example 11, 3-chloro-5-methyl-N-[4-(5-phenyl-1,3,4-oxadiazol-2-yl)phenyl]benzamide]
- IC50 (HBsAg): 6.4 µM
- IC50 (HBeAg): 12.7 µM
- CC50 at 144 h [1]: > 100 µM

SMILES: O=C(Nc1ccc(-c2nnc(-c3ccccc3)o2)cc1)c1cccc(Cl)n1 [Example 22, 6-chloro-N-[4-(5-phenyl-1,3,4-oxadiazol-2-yl)phenyl]pyridine-2-carboxamide]
- IC50 (HBsAg): 0.96 µM
- IC50 (HBeAg): 1.59 µM
- CC50 at 144 h [1]: > 100 µM

SMILES: CCCCC(=O)Nc1ccc(-c2nnc(-c3ccccc3)o2)cc1 [Example 3, N-[4-(5-phenyl-1,3,4-oxadiazol-2-yl)phenyl]pentanamide]
- IC50 (HBsAg): 2.39 µM
- IC50 (HBeAg): 3.01 µM
- CC50 at 144 h [1]: > 100 µM

SMILES: O=C(Nc1ccc(-c2nnc(-c3ccccc3)o2)cc1)c1cccc(OC(F)(F)F)c1 [Example 16, N-[4-(5-phenyl-1,3,4-oxadiazol-2-yl)phenyl]-3-(trifluoromethoxy)benzamide]
- IC50 (HBsAg): 1.35 µM
- IC50 (HBeAg): 2.91 µM
- CC50 at 144 h [1]: > 100 µM

SMILES: CCCC(=O)Nc1ccc(-c2nnc(-c3ccccc3)o2)cc1 [Example 2, N-[4-(5-phenyl-1,3,4-oxadiazol-2-yl)phenyl]butanamide]
- IC50 (HBsAg): 3 µM
- IC50 (HBeAg): 43.1 µM
- CC50 at 144 h [1]: > 100 µM

— patent US20230312491A1, “N-SUBSTITUTED 4-(5-PHENYL-1,3,4-OXADIAZOL-2-YL)ANILINE FOR THE TREATMENT AND PROPHYLAXIS OF HEPATITIS B VIRUS INFECTION” (priority 2020, published 2023)
